This note sets out measurements from patent US8058475B2, “Substituted cyclohexylmethyl compounds” (Gruenenthal GmbH, priority 2005, dated 2011).

Broadly, the inhibition is the change of the read-out against control, counted positive when it falls. In general, Ki refers to a measure of affinity in units of concentration, obtained from inhibition or displacement.

The target in this test is human μ-opiate receptor (Homo sapiens, UniProt P35372). Description: Affinity for the human μ-opiate receptor ([3H]-naloxone displacement, SPA, CHO-K1 membrane preparation). The format is binding. As to conditions: for inhibition at 1 µM: read-out: μ-Opioid receptor, % inhibition [1 μM]; for Ki: read-out: μ-Opioid receptor, Ki.
Sequence of human μ-opiate receptor (P35372 whole entry): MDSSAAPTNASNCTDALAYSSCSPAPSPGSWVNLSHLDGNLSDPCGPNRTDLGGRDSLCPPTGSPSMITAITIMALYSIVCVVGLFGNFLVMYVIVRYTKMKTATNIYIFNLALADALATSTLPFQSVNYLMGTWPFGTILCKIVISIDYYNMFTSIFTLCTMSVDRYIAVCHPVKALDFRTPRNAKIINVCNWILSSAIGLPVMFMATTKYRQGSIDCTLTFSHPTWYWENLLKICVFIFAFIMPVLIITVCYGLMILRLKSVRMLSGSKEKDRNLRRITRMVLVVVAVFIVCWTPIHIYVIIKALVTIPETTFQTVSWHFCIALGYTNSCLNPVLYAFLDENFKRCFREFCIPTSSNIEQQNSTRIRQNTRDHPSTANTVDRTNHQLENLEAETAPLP
Where [1] appears, read: 1 μM test substance, inhibition of specific [3H]-naloxone binding.

Where two headings read alike, the source gives them in different places.

Consider `CN(C)C(c1cccc(F)c1)C1CCC(NC(=O)c2c(F)cccc2F)CC1` (stereo not shown) [compound 278, N-{4-[dimethylamino-(3-fluoro-phenyl)-methyl]-cyclohexyl}-2,6-difluoro-benzamide], for which the inhibition at 1 µM was 74% and the Ki was determined as 0.086 µM.
As to `CN(C)C(c1ccccc1)C1CCC(CCNC(=O)c2cncc(Br)c2)CC1` (stereo not shown) [compound 473, 5-bromo-N-{2-[4-(dimethylamino-phenyl-methyl)-cyclohexyl]-ethyl}-nicotinamide], the inhibition at 1 µM came out at 91% and the Ki turned out to be 0.018 µM.
Turning to `CN(C)C(c1ccc(Cl)cc1)C1CCC(CNC(=O)Cc2cccs2)CC1` (stereo not shown) [compound 316, N-{4-[(4-chloro-phenyl)-dimethylamino-methyl]-cyclohexylmethyl}-2-thiophen-2-yl-acetamide], the inhibition at 1 µM worked out at 96%.
As to `CN(C)C(c1ccccc1)C1CCC(CCNC(=O)c2ccccc2Cl)CC1` (stereo not shown) [compound 402, 2-chloro-N-{2-[4-(dimethylamino-phenyl-methyl)-cyclohexyl]-ethyl}-benzamide], the inhibition at 1 µM was found to be 96% and the Ki worked out at 0.0079 µM.
For the compound `COc1cccc(CC2(O)CCC(C(c3ccc(Cl)cc3)N(C)C)CC2)c1` (stereo not shown) [compound 173, 4-[(4-chloro-phenyl)-dimethylamino-methyl]-1-(3-methoxy-benzyl)-cyclohexanol], the inhibition at 1 µM under setting [1] was 84%.
As to `CN(C)C(c1cccc(F)c1)C1CCC(NC(=O)c2cc(Cl)cc(Cl)c2)CC1` (stereo not shown) [compound 243, 3,5-dichloro-N-{4-[dimethylamino-(3-fluoro-phenyl)-methyl]-cyclohexyl}-benzamide], the inhibition at 1 µM came to 82% and the Ki amounted to 0.025 µM.
In the case of `CN(C)C(c1cccc(F)c1)C1CCC(NC(=O)c2cc3ccccc3s2)CC1` (stereo not shown) [compound 231, benzo[b]thiophene-2-carboxylic acid {4-[dimethylamino-(3-fluoro-phenyl)-methyl]-cyclohexyl}-amide], the inhibition at 1 µM turned out to be 86% and the Ki was determined as 0.045 µM.
On to `CC(Oc1ccccc1)C(=O)NC1CCC(C(c2ccccc2)N(C)C)CC1` (stereo not shown) [compound 230, N-[4-(dimethylamino-phenyl-methyl)-cyclohexyl]-2-phenoxy-propionamide], for which the inhibition at 1 µM came out at 86% and the Ki stood at 0.021 µM.
On to `Cc1ccccc1C1(O)CCC(C(c2ccc(Cl)cc2)N(C)C)CC1` (stereo not shown) [compound 161, 4-[(4-chloro-phenyl)-dimethylamino-methyl]-1-o-tolyl-cyclohexanol], for which the inhibition at 1 µM under setting [1] came out at 60%.
As to `CN(C)C(c1ccc(Cl)cc1)C1CCC(O)(Cc2ccc(F)cc2)CC1` (stereo not shown) [compound 172, 4-[(4-chloro-phenyl)-dimethylamino-methyl]-1-(4-fluoro-benzyl)-cyclohexanol], under setting [1], the inhibition at 1 µM came to 77%.
Turning to `CC(Oc1ccccc1)C(=O)NCC1CCC(C(c2cccc(F)c2)N(C)C)CC1` (single isomer, unassigned) [compound 332, N-{4-[dimethylamino-(3-fluoro-phenyl)-methyl]-cyclohexylmethyl}-2-phenoxy-propionamide], the inhibition at 1 µM worked out at 93% and the Ki is 0.02 µM.
As to `CCC(C)C(=O)NCC1CCC(C(c2ccccc2)N(C)C)CC1` (stereo not shown) [compound 387, N-[4-(dimethylamino-phenyl-methyl)-cyclohexylmethyl]-2-methyl-butyramide], the inhibition at 1 µM came out at 81% and the Ki is 0.07 µM.
Consider `Cc1onc(-c2c(Cl)cccc2Cl)c1C(=O)NCCC1CCC(C(c2cccs2)N(C)C)CC1` (stereo not shown) [compound 469, 3-(2,6-dichloro-phenyl)-5-methyl-isoxazole-4-carboxylic acid {2-[4-(dimethylamino-thiophen-2-yl-methyl)-cyclohexyl]-ethyl}-amide], for which the inhibition at 1 µM was found to be 87% and the Ki is 0.057 µM.
Consider `Cc1oc(-c2ccccc2)cc1C(=O)NC1CCC(C(c2cccc(F)c2)N(C)C)CC1` (stereo not shown) [compound 266, 2-methyl-5-phenyl-furan-3-carboxylic acid {4-[dimethylamino-(3-fluoro-phenyl)-methyl]-cyclohexyl}-amide], for which the inhibition at 1 µM is 78% and the Ki was found to be 0.036 µM.
For `CN(C)C(c1cccc(F)c1)C1CCC(CNC(=O)c2ccc(F)c(C(F)(F)F)c2)CC1` (stereo not shown) [compound 350, N-{4-[dimethylamino-(3-fluoro-phenyl)-methyl]-cyclohexylmethyl}-4-fluoro-3-trifluoromethyl-benzamide], the inhibition at 1 µM was determined as 89% and the Ki is 0.037 µM.
`CN(C)C(c1cccs1)C1CCC(CCNC(=O)c2ccc(F)cc2)CC1` (stereo not shown) [compound 426, N-{2-[4-(dimethylamino-thiophen-2-yl-methyl)-cyclohexyl]-ethyl}-4-fluoro-benzamide]: the inhibition at 1 µM was 99% and the Ki was determined as 0.0058 µM.
On the same counts, the results for `CN(C)C(c1cccc(F)c1)C1CCC(CCNC(=O)c2c(F)cccc2F)CC1` (stereo not shown) [compound 462, N-(2-{4-[dimethylamino-(3-fluoro-phenyl)-methyl]-cyclohexyl}-ethyl)-2,6-difluoro-benzamide] are 91% and 0.055 µM.
In the case of `CCC(C(=O)NC1CCC(C(c2ccccc2)N(C)C)CC1)c1ccccc1` (single isomer, unassigned) [compound 250, N-[4-(dimethylamino-phenyl-methyl)-cyclohexyl]-2-phenyl-butyramide], the Ki amounted to 0.036 µM. Also, the “μ-Opioid receptor, % inhibition [1 μM]” value (1 µM) was determined as 81%.
`CN(C)C(c1ccc(Cl)cc1)C1CCC(O)(Cc2ccccc2)CC1` (stereo not shown) [compound 159, 1-benzyl-4-[(4-chloro-phenyl)-dimethylamino-methyl]-cyclohexanol]: the inhibition at 1 µM under setting [1] came to 83%.
Regarding `CN(C)C(c1ccccc1)C1CCC(NC(=O)c2cccc3ccccc23)CC1` (stereo not shown) [compound 226, naphthyl-1-carboxylic acid [4-(dimethylamino-phenyl-methyl)-cyclohexyl]-amide], the “μ-Opioid receptor, % inhibition [1 μM]” value was 87% and the inhibition constant Ki is 0.058 µM.
As for `Cc1cc(C(=O)NC2CCC(C(c3ccccc3)N(C)C)CC2)c(C)o1` (stereo not shown) [compound 279, 2,5-dimethyl-furan-3-carboxylic acid [4-(dimethylamino-phenyl-methyl)-cyclohexyl]-amide], the inhibition at 1 µM worked out at 74% and the Ki was determined as 0.14 µM.
On the same counts, the results for `CN(C)C(c1cccs1)C1CCC(NC(=O)c2cccnc2Oc2ccc(Cl)cc2)CC1` (stereo not shown) [compound 257, 2-(4-chloro-phenoxy)-N-[4-(dimethylamino-thiophen-2-yl-methyl)-cyclohexyl]-nicotinamide] are 79% and 0.081 µM.
Take `CN(C)C(c1cccs1)C1CCC(NC(=O)c2cccs2)CC1` (stereo not shown) [compound 193, thiophene-2-carboxylic acid [4-(dimethylamino-thiophen-2-yl-methyl)-cyclohexyl]-amide]: the inhibition at 1 µM worked out at 96% and the Ki amounted to 0.023 µM.
Consider `CCC(C(=O)NCCC1CCC(C(c2ccc(Cl)cc2)N(C)C)CC1)c1ccccc1` (stereo not shown) [compound 455, N-(2-{4-[(4-chloro-phenyl)-dimethylamino-methyl]-cyclohexyl}-ethyl)-2-phenyl-butyramide], for which the inhibition at 1 µM turned out to be 81% and the Ki came out at 0.069 µM.
